Experimental findings from PubChem BioAssay (NCI) are described below.

The structures appear in SMILES notation. Where “and” joins values, the source holds several entries; their conditions need not be identical. Equal values may be shown once.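 Dose response: 5 concentrations. Exposure: 48 h. Format: 96-well plates. Endpoint: linear interpolation; highest concentration if not reached. At the GI50, growth is halved. The concentration for full growth arrest is given as TGI.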

Among the test systems are NCI-H226 lung; M14 melanoma; U251 CNS; EKVX NSCLC; COLO 205 colon; KM12 colon; SN12C renal; MALME-3M melanoma.
Experiment in all cases: NCI-60 cell line screen, 48 h

Regarding `CCCCN(CCCC)CCCN=c1nc2c(c(N)n1-c1ccccc1)c(=S)n(-c1ccccc1)c(=S)n2-c1ccccc1`, the GI50 with NCI-H226 lung was 1.61 µM; in the assay on M14 melanoma, 0.206 µM; in the assay on U251 CNS, 0.34 µM; with EKVX NSCLC it was 0.84 µM; in the assay on COLO 205 colon, 0.329 µM; with KM12 colon, 0.415 µM. For the same molecule, the GI50 with SN12C renal was 1.41 µM; in the assay on MALME-3M melanoma, 0.604 µM. The TGI with NCI-H226 lung stood at 3.11 µM; in the assay on M14 melanoma, 0.424 µM; with U251 CNS, 1.27 µM; in the assay on EKVX NSCLC, 2.69 µM; with COLO 205 colon, 1.39 µM; in the assay on KM12 colon, 1.46 µM. In addition, the TGI with SN12C renal was 2.79 µM; with MALME-3M melanoma, 1.31 µM.
For `CC1=C(/C=C/C(C)=C/C=C/C(C)=C/C(=O)Nc2ccc(O)cc2)C(C)(C)CCC1`, the GI50 is 10.3 µM in the assay on NCI-H226 lung; 4.05 µM with M14 melanoma; 1.94 µM with U251 CNS; 5.14 µM in the assay with EKVX NSCLC; 1.58 µM in the assay on COLO 205 colon; 1.58 µM in the assay on KM12 colon. In addition, the figures for the GI50 in the assay on SN12C renal and in the assay on MALME-3M melanoma were 1.61 µM and 2.1 µM, respectively. The TGI is 23.9 µM and 16.7 µM in the assay on NCI-H226 lung; 12.7 µM and 18.7 µM in the assay on M14 melanoma; 7.79 µM and 33.3 µM in the assay with U251 CNS; 20.7 µM and 25.2 µM in the assay with EKVX NSCLC; 4.8 µM and 8.28 µM in the assay with COLO 205 colon; 6.19 µM and 17.2 µM in the assay with KM12 colon. The TGI is 5.23 µM and 5.63 µM with SN12C renal; 6.48 µM and 18.7 µM in the assay on MALME-3M melanoma.
For the molecule `CCc1c(Cl)nc(Cl)nc1Cl`, the TGI was determined as 0.283 µM in the assay with NCI-H226 lung; 0.99 µM with M14 melanoma; 0.92 µM in the assay on U251 CNS; 1.94 µM with EKVX NSCLC; 0.284 µM in the assay with COLO 205 colon; 4.16 µM in the assay with KM12 colon. The TGI with SN12C renal amounted to 1.39 µM; with MALME-3M melanoma it was 0.718 µM.
For `CCC1CC(=O)N(SCC(N)C(=O)O)C1=O` (configuration not stated), the TGI with NCI-H226 lung, in the assay on M14 melanoma, in the assay with U251 CNS, in the assay on EKVX NSCLC, with COLO 205 colon and with KM12 colon was more than 100 µM throughout. In addition, the TGI with SN12C renal and in the assay with MALME-3M melanoma was more than 100 µM throughout.
For `Oc1cc(O)c2c(=S)cc(-c3ccc(Cl)cc3)oc2c1`, the GI50 in the assay with NCI-H226 lung was 4.97 µM; in the assay with M14 melanoma, 3.22 µM; in the assay with U251 CNS, 3.24 µM; in the assay on EKVX NSCLC, 9.36 µM; in the assay with COLO 205 colon it was 15.3 µM; in the assay on KM12 colon, 2.08 µM. The GI50 is 2.78 µM in the assay on SN12C renal and 2.01 µM in the assay with MALME-3M melanoma. Further, the TGI with NCI-H226 lung stood at 32.5 µM; in the assay on M14 melanoma it was 14.8 µM; in the assay with U251 CNS it was 11.3 µM; in the assay on EKVX NSCLC it was 54.1 µM; in the assay with COLO 205 colon, 33.6 µM; in the assay on KM12 colon it was 11.5 µM. For the same molecule, the TGI in the assay with SN12C renal was found to be 11.1 µM; in the assay on MALME-3M melanoma, 6.71 µM.
`COc1ccc(C2=C(c3cc(OC)c(OC)c(OC)c3)C(=O)CC2)cc1`: the GI50 with NCI-H226 lung was 0.425 µM; with M14 melanoma it was 0.107 µM; in the assay on U251 CNS it was 0.324 µM; in the assay with EKVX NSCLC it was 0.699 µM; with COLO 205 colon, 0.218 µM; with KM12 colon it was 0.0719 µM. The results for the GI50 with SN12C renal and in the assay on MALME-3M melanoma were 0.676 µM and more than 100 µM, respectively. For the same molecule, the TGI is more than 22.6 µM in the assay with NCI-H226 lung; 4.01 µM in the assay on M14 melanoma; more than 100 µM in the assay on U251 CNS; more than 100 µM in the assay with EKVX NSCLC; 1.17 µM in the assay with COLO 205 colon; more than 100 µM with SN12C renal. Besides, in the assay with MALME-3M melanoma, the TGI was more than 100 µM.
Take `C#CCNC(=O)CC[C@]1(C)[C@H]2CC[C@@H]3[C@@H]([C@@](C)(O)CCC=C(C)C)CC[C@@]3(C)[C@]2(C)CC[C@H]1C(=C)C`: the GI50 was 18.3 µM in the assay with NCI-H226 lung; 30.9 µM in the assay with M14 melanoma; 20.1 µM in the assay with U251 CNS; 47.9 µM in the assay with EKVX NSCLC; 31.9 µM in the assay on COLO 205 colon; 38.5 µM with KM12 colon. Also, the GI50 was 31.8 µM in the assay with SN12C renal and 16.4 µM in the assay on MALME-3M melanoma. Moreover, the TGI with NCI-H226 lung was 43.1 µM; in the assay with M14 melanoma, more than 100 µM; with U251 CNS it was 49.5 µM; in the assay on EKVX NSCLC, more than 100 µM; in the assay on COLO 205 colon it was more than 100 µM; in the assay with KM12 colon it was more than 100 µM. Besides, the TGI is more than 100 µM with SN12C renal and 35 µM in the assay on MALME-3M melanoma.
For the molecule `O=c1[nH]c(SCc2c(Cl)c(Cl)c(Cl)c(Cl)c2Cl)nc(=S)[nH]1`, the TGI with NCI-H226 lung is more than 100 µM; with M14 melanoma, more than 100 µM; in the assay on U251 CNS, more than 100 µM; in the assay with EKVX NSCLC, more than 100 µM; in the assay with COLO 205 colon it was 33.8 µM; with KM12 colon, more than 100 µM. The TGI is more than 100 µM in the assay on SN12C renal and 73.4 µM in the assay with MALME-3M melanoma.
With `COc1cccc(C2C3=C(COC3=O)N(CCO)c3cc4c(cc32)OCCO4)c1` (configuration not stated), the GI50 in the assay on NCI-H226 lung was 7.26 µM; in the assay on M14 melanoma, 0.052 µM; in the assay with U251 CNS it was 0.221 µM; in the assay on EKVX NSCLC, 0.265 µM; in the assay on COLO 205 colon, 0.108 µM; with KM12 colon it was 0.0798 µM. In addition, in the assay with MALME-3M melanoma, the GI50 was 49.1 µM. In addition, the TGI in the assay with NCI-H226 lung is more than 50 µM; in the assay on M14 melanoma it was 0.19 µM; in the assay on U251 CNS it was more than 50 µM; in the assay with EKVX NSCLC it was more than 50 µM; in the assay on COLO 205 colon it was 0.268 µM; in the assay with KM12 colon it was 1.85 µM. Besides, the TGI with SN12C renal and with MALME-3M melanoma was more than 50 µM throughout.
On to `O=C(O)CCCCn1cnc2c(=S)nc[nH]c21`, for which the TGI in the assay with NCI-H226 lung, in the assay with M14 melanoma, with U251 CNS, in the assay with EKVX NSCLC, with COLO 205 colon and in the assay on KM12 colon was more than 100 µM each time. The TGI with SN12C renal and with MALME-3M melanoma was more than 100 µM in each case.
Regarding `Cc1cc(-c2nc(-c3ccc(OC(F)(F)F)cc3)no2)nn1Cc1ccnc(N2CCN(C3CC3)CC2)c1`, the GI50 was 12.2 µM in the assay with NCI-H226 lung; 2.69 µM in the assay on M14 melanoma; 5.52 µM with U251 CNS; less than 0.01 µM in the assay on EKVX NSCLC; 3.27 µM in the assay on COLO 205 colon; 6.88 µM with KM12 colon. For the same molecule, the GI50 in the assay on SN12C renal was more than 34.1 µM; in the assay on MALME-3M melanoma, 4.77 µM. In addition, the TGI with NCI-H226 lung is more than 100 µM; with M14 melanoma, 20.4 µM; in the assay with U251 CNS, more than 100 µM; with EKVX NSCLC, more than 51.6 µM; in the assay on COLO 205 colon, 25.7 µM; in the assay with KM12 colon, more than 91.9 µM. The TGI in the assay with SN12C renal is more than 100 µM; with MALME-3M melanoma, more than 55.6 µM.
